In the experiment the target is T1, acyl coenzyme-A:cholesterol-O-acyl transferase (ACAT; EC 2.3.1.26) (Rattus norvegicus, UniProt Q7TQM4).
T1 construct: microsomes obtained from the livers of rats; from tissue; host or cells: liver microsomes of rats fed 0.5% w/w cholesterol and 0.25% w/w cholic acid
T1 sequence (Q7TQM4 1-524): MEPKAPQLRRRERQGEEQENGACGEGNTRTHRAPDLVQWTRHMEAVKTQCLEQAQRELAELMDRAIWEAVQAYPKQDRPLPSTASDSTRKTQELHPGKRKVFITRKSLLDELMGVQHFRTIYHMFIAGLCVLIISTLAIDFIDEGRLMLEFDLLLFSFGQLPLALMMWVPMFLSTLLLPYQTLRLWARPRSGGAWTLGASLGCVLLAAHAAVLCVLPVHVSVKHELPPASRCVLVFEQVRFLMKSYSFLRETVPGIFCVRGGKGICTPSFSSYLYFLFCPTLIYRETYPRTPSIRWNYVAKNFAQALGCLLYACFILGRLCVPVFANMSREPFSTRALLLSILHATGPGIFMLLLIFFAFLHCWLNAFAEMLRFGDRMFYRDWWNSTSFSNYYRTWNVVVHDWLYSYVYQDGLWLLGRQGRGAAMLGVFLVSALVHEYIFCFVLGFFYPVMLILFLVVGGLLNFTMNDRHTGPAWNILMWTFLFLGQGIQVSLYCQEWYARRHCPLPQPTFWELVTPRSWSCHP
Put plainly: In vitro inhibition of acyl coenzyme-A:cholesterol-O-acyl transferase (ACAT) in liver microsomes of cholesterol/cholic acid-fed rats. The experiment is classed as biochemical. To be noted: microsomes from livers of rats fed a diet containing 0.5% w/w cholesterol and 0.25% w/w cholic acid. On the technique in general: Liver microsomes are vesicles of endoplasmic reticulum, rich in cytochrome P450 enzymes.

In general, IC50 refers to the concentration needed to halve the response being measured. Low readings indicate inhibition by little substance, high ones a need for much substance.

Molecules are shown by their SMILES.

Consider `CO[C@H]1C[C@H](O)C[C@@H](CSc2nc(-c3ccccc3)c(-c3ccccc3)[nH]2)O1` [(II), (2R,4R,6S)-6-[(4,5-diphenylimidazol-2-yl)thiomethyl]-4-hydroxy-2-methoxy-3,4,5,6-tetrahydro-2H-pyran], for which 91 nM corresponded to half-maximal inhibition (IC50).

`CO[C@@H]1C[C@H](O)C[C@@H](CSc2nc(-c3ccccc3)c(-c3ccccc3)[nH]2)O1` [(I), (2S,4R,6S)-6-[(4,5-diphenylimidazol-2-yl)thiomethyl]-4-hydroxy-2-methoxy-3,4,5,6-tetrahydro-2H-pyran] displayed an IC50 of 50 nM.
